In patent US10023602B2, “Hamamelitannin analogues and uses thereof” (Universiteit Gent, priority 2014, dated 2018):

Assays:
[1] = test system: methicillin resistant S. aureus Mu50 strain (S. aureus ATCC700699) biofilm; test: Biofilm susceptibility to vancomycin, pre-treatment regimen (biofilm formed in presence of compound, then vancomycin); assay type: cell-based; settings: for Pretreat (100 μM): percentage Colony Forming Units (CFU's) per biofilm: compound 100 μM during biofilm formation; for Pretreat (100 μM): percentage Colony Forming Units (CFU's) per biofilm / Pretreat. (25 μM): percentage Colony Forming Units (CFU's) per biofilm: then VAN 20 μg/ml, compared to the untreated (negative) control; for EC50: concentration needed to get 50% killing compared to antibiotic alone (VAN 20 μg/ml) and complete killing, read-out: Pretreat. (EC50); for Pretreat. (25 μM): percentage Colony Forming Units (CFU's) per biofilm: compound 25 μM during biofilm formation
Procedure, shortened: (§1)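 Mu50 biofilms from 10^8 CFU/ml inoculum (4 h adhesion, then 20 h, 37 °C). Pre-treatment: compound (0.1-250 μM) present during biofilm formation, then vancomycin 20 μg/ml alone 24 h; combination: mature biofilm given vancomycin 20 μg/ml plus compound 24 h. Survivors counted by plating versus vancomycin alone.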

[2] = test system: methicillin resistant S. aureus Mu50 strain (S. aureus ATCC700699) biofilm; test: Biofilm susceptibility to vancomycin, combination treatment regimen (mature biofilm treated with compound plus vancomycin); assay type: cell-based; settings: for Combin. (100 μM): percentage Colony Forming Units (CFU's) per biofilm: compound 100 μM together with VAN 20 μg/ml on mature biofilm; for Combin. (100 μM): percentage Colony Forming Units (CFU's) per biofilm / Combin. (25 μM): percentage Colony Forming Units (CFU's) per biofilm: compared to the untreated (negative) control; for EC50: concentration needed to get 50% killing compared to antibiotic alone (VAN 20 μg/ml) and complete killing, read-out: Combin. (EC50); for Combin. (25 μM): percentage Colony Forming Units (CFU's) per biofilm: compound 25 μM together with VAN 20 μg/ml on mature biofilm
Procedure, shortened: as §1

SMILES | Pretreat (100 μM): percentage Colony Forming Units (CFU's) per biofilm [1] [percentage] | EC50 [1] [µM] | Combin. (100 μM): percentage Colony Forming Units (CFU's) per biofilm [2] [percentage] | EC50 [2] [µM] | Pretreat. (25 μM): percentage Colony Forming Units (CFU's) per biofilm [1] [percentage] | Combin. (25 μM): percentage Colony Forming Units (CFU's) per biofilm [2] [percentage]
O=C(NC[C@H]1OC[C@@](O)(CNC(=O)c2ccccc2)[C@@H]1O)c1ccnnc1 [compound 207, N-(((2R,3R,4S)-4-(benzamidomethyl)-3,4-dihydroxytetrahydrofuran-2-yl)methyl)pyridazine-4-carboxamide] | 6.950 | 7.28 | 13.70 | 8.54 |  | 
O=C(NC[C@]1(O)CO[C@H](CNC(=O)c2cnccc2Cl)[C@H]1O)c1ccccc1 [compound 201, N-(((2R,3R,4S)-4-(benzamidomethyl)-3,4-dihydroxytetrahydrofuran-2-yl)methyl)-4-chloronicotinamide] | 51.81 | 200 | 74.81 | > 250 |  | 
O=C(NC[C@H]1OC(O)[C@@](O)(CNC(=O)c2ccc(O)cc2)[C@@H]1O)c1ccc(O)cc1 (stereo partly drawn) [compound 20, N,N′-(((2R,3R,4R)-3,4,5-trihydroxytetrahydrofuran-2,4-diyl)bis(methylene))bis(4-hydroxybenzamide)] | 19.78 | 85.6 | 27.23 | 52.3 |  | 
O=C(NC[C@H]1OC[C@@](O)(CNC(=O)c2ccccc2)[C@@H]1O)c1ccc(Cl)cc1 [compound 153, N-(((2R,3R,4S)-4-(benzamidomethyl)-3,4-dihydroxytetrahydrofuran-2-yl)methyl)-4-chlorobenzamide] | 9.185 | 18 | 8.577 | 21.4 |  | 
Cn1cncc1C(=O)NC[C@H]1OC[C@@](O)(CNC(=O)c2ccccc2)[C@@H]1O [compound 210, N-(((2R,3R,4S)-4-(benzamidomethyl)-3,4-dihydroxytetrahydrofuran-2-yl)methyl)-1-methyl-1H-imidazole-5-carboxamide] | 22.10 | 52.3 | 26.95 | 58.2 |  | 
O=C(NC[C@]1(O)CO[C@H](CNC(=O)c2ccc(Cl)cc2Cl)[C@H]1O)c1ccccc1 [compound 193, N-(((2R,3R,4S)-4-(benzamidomethyl)-3,4-dihydroxytetrahydrofuran-2-yl)methyl)-2,4-dichlorobenzamide] | 10.80 | 11.4 | 11.25 | 11.7 |  | 
O=C(NC[C@]1(O)CO[C@H](CNS(=O)(=O)C(F)(F)F)[C@H]1O)c1ccccc1 [compound 214, N-(((3S,4R,5R)-3,4-dihydroxy-5-(((trifluoromethyl)sulfonamido)methyl)tetrahydrofuran-3-yl)methyl)benzamide] | 29.28 |  | 42.85 |  |  | 
O=C(NC[C@]1(O)CO[C@H](CNC(=O)c2cnccn2)[C@H]1O)c1ccccc1 [compound 208, N-(((2R,3R,4S)-4-(benzamidomethyl)-3,4-dihydroxytetrahydrofuran-2-yl)methyl)pyrazine-2-carboxamide] | 10.52 |  | 18.77 |  |  | 
O=C(NC[C@H]1OC[C@@](O)(CNC(=O)c2cc(O)c(O)c(O)c2)[C@@H]1O)c1cc(O)c(O)c(O)c1 [compound 264, N,N′-(((2R,3R,4S)-3,4-dihydroxytetrahydrofuran-2,4-diyl)bis(methylene))bis(3,4,5-trihydroxybenzamide)] | 22.35 | 63.8 | 57.74 | 191 |  | 
Cc1ccc(S(=O)(=O)NC[C@H]2OC[C@@](O)(CNC(=O)c3ccccc3)[C@@H]2O)cc1 [compound 216, N-(((3S,4R,5R)-3,4-dihydroxy-5-(((4-methylphenyl)sulfonamido)methyl)tetrahydrofuran-3-yl)methyl)benzamide] | 16.96 |  | 25.95 |  |  | 
O=C(NC[C@H]1OC[C@@](O)(CNC(=O)c2ccccc2)[C@@H]1O)c1ccc(-c2ccccc2)cc1 [compound 159, N-(((2R,3R,4S)-4-(benzamidomethyl)-3,4-dihydroxytetrahydrofuran-2-yl)methyl)-[1,1′-biphenyl]-4-carboxamide] | 10.97 | 6.38 | 6.966 | 11.3 |  | 
O=C(NC[C@H]1OC[C@@](O)(CNC(=O)c2ccccc2)[C@@H]1O)c1ccc(F)cc1 [compound 152, N-(((2R,3R,4S)-4-(benzamidomethyl)-3,4-dihydroxytetrahydrofuran-2-yl)methyl)-4-fluorobenzamide] | 15.07 |  | 14.05 |  |  | 
N#Cc1ccc(C(=O)NC[C@H]2OC[C@@](O)(CNC(=O)c3ccccc3)[C@@H]2O)cc1 [compound 155, N-(((2R,3R,4S)-4-(benzamidomethyl)-3,4-dihydroxytetrahydrofuran-2-yl)methyl)-4-cyanobenzamide] | 15.57 |  | 16.06 |  |  | 
O=C(NC[C@]1(O)CO[C@H](CN2C(=O)c3ccccc3C2=O)[C@H]1O)c1ccc(-c2ccccc2)cc1 [compound 254, N-(((3S,4R,5R)-5-((1,3-dioxoisoindolin-2-yl)methyl)-3,4-dihydroxytetrahydrofuran-3-yl)methyl)-[1,1′-biphenyl]-4-carboxamide] | 3.52 | 4.79 | 30.44 | 57.1 |  | 
N#Cc1cccc(C(=O)NC[C@H]2OC[C@@](O)(CNC(=O)c3ccccc3)[C@@H]2O)c1 [compound 164, N-(((2R,3R,4S)-4-(benzamidomethyl)-3,4-dihydroxytetrahydrofuran-2-yl)methyl)-3-cyanobenzamide] | 22.11 |  | 14.49 |  |  | 
O=C(NC[C@]1(O)CO[C@H](CNC(=O)c2ccccc2Cl)[C@H]1O)c1ccco1 [compound 246, N-(((3S,4R,5R)-5-((2-chlorobenzamido)methyl)-3,4-dihydroxytetrahydrofuran-3-yl)methyl)furan-2-carboxamide] |  |  |  |  | 87.98 | 62.82
O=C(NC[C@]1(O)CO[C@H](CNC(=O)c2ncccn2)[C@H]1O)c1ccccc1 [compound 203, N-(((2R,3R,4S)-4-(benzamidomethyl)-3,4-dihydroxytetrahydrofuran-2-yl)methyl)pyrimidine-2-carboxamide] | 41.20 |  | 31.95 |  |  | 
O=C(NC[C@H]1OC[C@@](O)(CNC(=O)c2ccccc2Cl)[C@@H]1O)c1ccnnc1 [compound 251, N-(((2R,3R,4S)-4-((2-chlorobenzamido)methyl)-3,4-dihydroxytetrahydrofuran-2-yl)methyl)pyridazine-4-carboxamide] | 3.85 | 3.38 | 37.03 | 98.9 |  | 
O=C(Cc1ccccc1)NC[C@H]1OC[C@@](O)(CNC(=O)c2ccccc2)[C@@H]1O [compound 189, N-(((3S,4R,5R)-3,4-dihydroxy-5-((2-phenylacetamido)methyl)tetrahydrofuran-3-yl)methyl)benzamide] | 59.77 |  | 58.95 |  |  | 
COc1cccc(C(=O)NC[C@H]2OC[C@@](O)(CNC(=O)c3ccccc3)[C@@H]2O)c1 [compound 163, N-(((2R,3R,4S)-4-(benzamidomethyl)-3,4-dihydroxytetrahydrofuran-2-yl)methyl)-3-methoxybenzamide] | 28.44 |  | 27.21 |  |  | 
O=C(NC[C@]1(O)CO[C@H](CNC(=O)c2ccccc2Cl)[C@H]1O)c1ccccc1F [compound 245, 2-chloro-N-(((2R,3R,4S)-4-((2-fluorobenzamido)methyl)-3,4-dihydroxytetrahydrofuran-2-yl)methyl)benzamide] |  | 48.6 |  | 62.2 | 61.75 | 44.14
O=C(NC[C@]1(O)CO[C@H](CN2C(=O)c3ccc(Cl)cc3C2=O)[C@H]1O)c1ccccc1 [compound 227, N-(((3S,4R,5R)-5-((5-chloro-1,3-dioxoisoindolin-2-yl)methyl)-3,4-dihydroxytetrahydrofuran-3-yl)methyl)benzamide] | 77.57 |  | 61.81 |  |  | 
